The values below come from US8957070B2, “Glucokinase activator compounds, methods of activating glucokinase and methods of treating diabetes and obesity” (Takeda Pharmaceutical Company Limited, priority 2005, dated 2015).

Structures are written as SMILES.

The target of series [1] is T1, GST-hLGK1 (human liver type GK) (Homo sapiens, UniProt P35557).
T1 construct: with a BamHI site added to immediately before the initiation codon; made in house; host or cells: Escherichia coli BL21
T1 sequence (P35557 1-464 isoform P35557-3): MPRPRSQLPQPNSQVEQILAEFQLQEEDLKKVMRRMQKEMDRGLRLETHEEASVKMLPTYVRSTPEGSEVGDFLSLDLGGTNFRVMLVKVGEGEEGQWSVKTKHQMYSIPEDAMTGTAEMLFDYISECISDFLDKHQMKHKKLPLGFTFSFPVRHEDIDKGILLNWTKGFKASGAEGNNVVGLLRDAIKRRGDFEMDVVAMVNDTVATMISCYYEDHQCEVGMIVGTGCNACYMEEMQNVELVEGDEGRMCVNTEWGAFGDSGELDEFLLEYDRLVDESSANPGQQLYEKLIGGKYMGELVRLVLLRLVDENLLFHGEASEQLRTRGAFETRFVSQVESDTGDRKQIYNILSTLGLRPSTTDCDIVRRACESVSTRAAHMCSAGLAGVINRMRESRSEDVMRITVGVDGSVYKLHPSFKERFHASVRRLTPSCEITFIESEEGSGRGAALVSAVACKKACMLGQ
The series is described as follows: Determination of GK activity value (Mant-ATP conversion, capillary electrophoresis). Format: biochemical. As to conditions: concentration necessary for activating 50% of the maximum GK activity value, 37° C., 60 min, D-glucose added. As to the method: A solution (5 μL) of test compound in 50% dimethyl sulfoxide was added to each well of 384 well black plate (Nalge Nunc International K.K.). Then, a solution (35 μL) obtained by diluting GST-hLGK1 obtained in Reference Example 2A with measurement buffer (containing 50 mM HEPES (pH 7.4), 200 mM KCl, 5 mM MgCl2, 2.5 mM DTT and 50 μM 2′-(or -3′)-O—(N-methylanthraniloyl)adenosine 5′-triphosphate (Mant-ATP) (Jena Bioscience GmbH)) to 6 μg/mL was added to each well.
Each well was stood at 37° C. for 10 min, and 25 mM D-glucose solution (10 μL) was added to start the reaction.
Each well after the reaction was stood at 37° C. for 60 min, and the reaction was quenched by adding 25 μL of a quenching solution (containing 200 mM HEPES (pH 7.4), 20 mM MgCl2, 200 mM EDTA, 0.03% Triton-X 100, 0.3% Coating 3 reagent (Caliper Life Sciences, Inc.)).
Mant-ATP (substrate) and Mant-ADP (reaction resultant product) were separated from each well after the reaction by a microchip type capillary electrophoresis apparatus 250 HTS (Caliper Life Sciences, Inc.). The reaction rate [(reaction resultant product peak height)/(reaction resultant product peak height+substrate peak height)×100(%)] was calculated from the ratio of the substrate peak height and reaction resultant product peak height obtained by fluorescence detection (excitation wavelength 355 nm, measurement wavelength 460 nm) and used as the index of GK activity.
As a control group, the reaction rate was calculated in the same manner as above except that “solution in 50% dimethyl sulfoxide” was used instead of “solution of test compound in 50% dimethyl sulfoxide”.
The percentage obtained by dividing the reaction rate of the well added with the test compound (test compound addition group) by the reaction rate of the well added with 50% solution in dimethyl sulfoxide alone (control group) was taken as the GK activity value of the test compound, and the concentration of the test compound necessary for activating 50% of the maximum value of the activity value is shown as EC50 value.

The compound `O=S(=O)(Nc1cccc2cc(C3=NCCS3)[nH]c12)c1cccs1` [Example 3, N-[2-(4,5-dihydro-1,3-thiazol-2-yl)-1H-indol-7-yl]thiophene-2-sulfonamide] showed an EC50 in series [1] of 0.11 µM.
`O=S(=O)(Nc1cccc2cc(C3=NCCO3)[nH]c12)c1cccs1` [Example 5, N-[2-(4,5-Dihydro-1,3-oxazol-2-yl)-1H-indol-7-yl]thiophene-2-sulfonamide] had an EC50 in series [1] of 1.2 µM.
The compound `O=S(=O)(Nc1cccc2cc(-c3nccs3)[nH]c12)c1cccs1` [Example 7, N-[2-(1,3-Thiazol-2-yl)-1H-indol-7-yl]thiophene-2-sulfonamide] returned an EC50 in series [1] of 0.24 µM. This EC50 lies about 5-fold lower than the previous one.
`O=S(=O)(Nc1cccc2cc(-c3ccccn3)[nH]c12)c1cccs1` [Example 8, N-[2-(Pyridin-2-yl)-1H-indol-7-yl]thiophene-2-sulfonamide] came in with a concentration for a half-maximal effect (EC50) in series [1] of 1.5 µM.
For the compound `O=C1CCCc2c1[nH]c1c(NS(=O)(=O)c3cccs3)cccc21` [Example 11, N-(1-Oxo-2,3,4,9-tetrahydro-1H-carbazol-8-yl) thiophene-2-sulfonamide], a half-maximal effect in series [1] (EC50) was put at 1.4 µM.
In series [1], `O=S(=O)(Nc1cccc2cc(-c3ncon3)[nH]c12)c1cccs1` [Example 17, N-[2-(1,2,4-Oxadiazol-3-yl)-1H-indol-7-yl]thiophene-2-sulfonamide] yielded an EC50 of 4.8 µM.
In series [1], `CCOC(=O)c1[nH]c2c(NS(=O)(=O)c3cccs3)cccc2c1C` [Example 23, Ethyl 3-methyl-7-[(2-thienylsulfonyl)amino]-1H-indole-2-carboxylate] showed a 50% effective concentration (EC50) of 2.7 µM.
The compound `Cc1c(C2=NCCS2)[nH]c2c(NS(=O)(=O)c3cccs3)cccc12` [Example 26, N-[2-(4,5-Dihydro-1,3-thiazol-2-yl)-3-methyl-1H-indol-7-yl]thiophene-2-sulfonamide] gave a concentration giving a half-maximal response (EC50) in series [1] of 1.7 µM.
In turn, `Cc1cc(NS(=O)(=O)c2cccs2)c2[nH]c3c(c2c1)CCNC3=O` [Example 52, N-(6-Methyl-1-oxo-2,3,4,9-tetrahydro-1H-β-carbolin-8-yl)thiophene-2-sulfonamide] displayed an EC50 in series [1] of 2 µM.
Same read-out and setting: next, `CCCSc1ccc(NS(=O)(=O)c2cccs2)c2[nH]c(C(=O)OCC)cc12` [Example 65, Ethyl 4-(propylthio)-7-[(2-thienylsulfonyl)amino]-1H-indole-2-carboxylate]: 0.39 µM; `CN(c1cccc2cc(C3=NCCS3)[nH]c12)S(=O)(=O)c1cccs1` [Example 86, N-[2-(4,5-Dihydro-1,3-thiazol-2-yl)-1H-indol-7-yl]-N-methylthiophene-2-sulfonamide]: 0.027 µM; `CN(c1cccc2cc(-c3nccs3)[nH]c12)S(=O)(=O)c1cccs1` [Example 97, N-Methyl-N-[2-(1,3-thiazol-2-yl)-1H-indol-7-yl]thiophene-2-sulfonamide]: 0.077 µM.
In series [1], `CCN(c1cccc2cc(C3=NCCS3)[nH]c12)S(=O)(=O)c1cccs1` [Example 104, N-[2-(4,5-Dihydro-1,3-thiazol-2-yl)-1H-indol-7-yl]-N-ethylthiophene-2-sulfonamide] had a 50% effective concentration (EC50) of 0.034 µM.
`CCOC(=O)Cc1cnc(-c2cc3cccc(N(C)S(=O)(=O)c4cccs4)c3[nH]2)s1` [Example 137, Ethyl (2-{7-[methyl(2-thienylsulfonyl)amino]-1H-indol-2-yl}-1,3-thiazol-5-yl)acetate] came in with an EC50 in series [1] of 0.048 µM.
The compound `CN(c1cccc2cc(-c3ncc(CN4CCOCC4)s3)[nH]c12)S(=O)(=O)c1cccs1` [Example 146, N-Methyl-N-{2-[5-(morpholin-4-ylmethyl)-1,3-thiazol-2-yl]-1H-indol-7-yl}thiophene-2-sulfonamide] had a concentration for a half-maximal effect (EC50) in series [1] of 0.18 µM.
Still for that read-out and setting: in the case of `CN(c1cccc2cc(-c3ncc(CCC#N)s3)[nH]c12)S(=O)(=O)c1cccs1` [Example 151, N-{2-[5-(2-Cyanoethyl)-1,3-thiazol-2-yl]-1H-indol-7-yl}-N-methylthiophene-2-sulfonamide] it was 0.08 µM.
With `CN(c1cc(F)cc2cc(C3=NCCS3)[nH]c12)S(=O)(=O)c1cccs1` [Example 165, N-[2-(4,5-dihydro-1,3-thiazol-2-yl)-5-fluoro-1H-indol-7-yl]-N-methylthiophene-2-sulfonamide], it took 0.028 µM to reach a half-maximal effect in series [1] (EC50).
The compound `CN(c1cc(OC(F)(F)F)cc2cc(C(=O)O)[nH]c12)S(=O)(=O)c1cccs1` [Example 167, 7-[Methyl(2-thienylsulfonyl)amino]-5-(trifluoromethoxy)-1H-indole-2-carboxylic acid] displayed a melting point of 245 to 246 °C.
`CN(c1cc(OC(F)(F)F)cc2cc(C3=NCCS3)[nH]c12)S(=O)(=O)c1cccs1` [Example 169, N-[2-(4,5-dihydro-1,3-thiazol-2-yl)-5-(trifluoromethoxy)-1H-indol-7-yl]-N-methylthiophene-2-sulfonamide] gave a concentration for a half-maximal effect (EC50) in series [1] of 0.022 µM.
`Cc1nc(-c2cc3cccc(N(C)S(=O)(=O)c4cccs4)c3[nH]2)cs1` [Example 173, N-Methyl-N-[2-(2-methyl-1,3-thiazol-4-yl)-1H-indol-7-yl]thiophene-2-sulfonamide] gave a melting point of 161 to 162 °C.
For the compound `CNc1nc(-c2cc3cccc(N(C)S(=O)(=O)c4cccs4)c3[nH]2)cs1` [Example 174, N-Methyl-N-{2-[2-(methylamino)-1,3-thiazol-4-yl]-1H-indol-7-yl}thiophene-2-sulfonamide], the melting point is 162 to 163 °C.
The compound `Cc1ccc(N(C)S(=O)(=O)c2cccs2)c2[nH]c(C(=O)O)cc12` [Example 175, 4-Methyl-7-[methyl (2-thienylsulfonyl)amino]-1H-indole-2-carboxylic acid] registered a melting point of 223 to 225 °C.
Still for that read-out and setting: in the case of `Cc1ccc(N(C)S(=O)(=O)c2cccs2)c2[nH]c(-c3nccs3)cc12` [Example 177, N-Methyl-N-[4-methyl-2-(1,3-thiazol-2-yl)-1H-indol-7-yl]thiophene-2-sulfonamide] it was 159 to 160 °C.
In series [1], `CN(c1cccc2cc(-c3nccs3)[nH]c12)S(=O)(=O)c1nccn1C` [Example 209, N,1-Dimethyl-N-[2-(1,3-thiazol-2-yl)-1H-indol-7-yl]-1H-imidazole-2-sulfonamide] returned an EC50 of 0.51 µM.
In turn, `Cc1ccc(N(C)S(=O)(=O)c2cccs2)c2[nH]c(-c3ncc(CO)s3)cc12` [Example 245, N-{2-[5-(Hydroxymethyl)-1,3-thiazol-2-yl]-4-methyl-1H-indol-7-yl}-N-methylthiophene-2-sulfonamide] displayed a melting point of 184 to 185 °C.
`CCOC(=O)c1cc2c(C)ccc(N(CC)S(=O)(=O)c3cccs3)c2[nH]1` [Example 246, Ethyl 7-[ethyl(2-thienylsulfonyl)amino]-4-methyl-1H-indole-2-carboxylate] displayed a melting point of 148 to 149 °C.
Same read-out and setting: next, `CCN(c1ccc(C)c2cc(-c3ncc(C(C)O)s3)[nH]c12)S(=O)(=O)c1cccs1` (stereo not drawn) [Example 249, N-Ethyl-N-{2-[5-(1-hydroxyethyl)-1,3-thiazol-2-yl]-4-methyl-1H-indol-7-yl}thiophene-2-sulfonamide]: 152 to 153 °C.
`CCN(c1ccc(C)c2cc(-c3ncc(CO)s3)[nH]c12)S(=O)(=O)c1cccs1` [Example 250, N-Ethyl-N-{2-[5-(hydroxymethyl)-1,3-thiazol-2-yl]-4-methyl-1H-indol-7-yl}thiophene-2-sulfonamide] showed a melting point of 166 to 167 °C.
`CN(c1ccc(Cl)c2cc(-c3ncc(CO)s3)[nH]c12)S(=O)(=O)c1cccs1` [Example 261, N-{4-chloro-2-[5-(hydroxymethyl)-1,3-thiazol-2-yl]-1H-indol-7-yl}-N-methylthiophene-2-sulfonamide] yielded an EC50 in series [1] of 0.019 µM. This counts as double-digit nanomolar.
On to `CCN(c1cccc2cc(-c3ncc(COc4ccc(C(=O)O)cc4)s3)[nH]c12)S(=O)(=O)c1cccs1` [Example 280, 4-[(2-{7-[ethyl(2-thienylsulfonyl)amino]-1H-indol-2-yl}-1,3-thiazol-5-yl)methoxy]benzoic acid], for which a half-maximal effect in series [1] (EC50) was put at 0.035 µM.
